According to ChEMBL document CHEMBL4251595, “Green approach for the synthesis of thiophenyl pyrazoles and isoxazoles by adopting 1,3-dipolar cycloaddition methodology and their antimicrobial activity” (2018):
Values after ≈ are worked out from the molar mass of the structure shown. Active and inactive are the calls of the source. The calls are words filed in the database; no cut-off is given here.

Experiments:
Format in all cases: functional
[1] = tested on: Aspergillus niger; experiment: Antifungal activity against Aspergillus niger assessed as zone of inhibition at 50 ug/well after 48 hrs by agar well diffusion method; settings: for zone of inhibition at 50 µg/disc: read-out: DIZ
[2] = tested on: Penicillium chrysogenum; experiment: Antifungal activity against Penicillium chrysogenum assessed as zone of inhibition at 100 ug/well after 48 hrs by agar well diffusion method; settings: for zone of inhibition at 100 µg/disc: read-out: DIZ
[3] = tested on: Penicillium chrysogenum; experiment: Antifungal activity against Penicillium chrysogenum assessed as zone of inhibition at 50 ug/well after 48 hrs by agar well diffusion method; settings: for zone of inhibition at 50 µg/disc: read-out: DIZ
[4] = tested on: Aspergillus niger; experiment: Antifungal activity against Aspergillus niger assessed as zone of inhibition at 100 ug/well after 48 hrs by agar well diffusion method; settings: for zone of inhibition at 100 µg/disc: read-out: DIZ
[5] = tested on: Penicillium chrysogenum; experiment: Antifungal activity against Penicillium chrysogenum assessed as zone of inhibition at 75 ug/well after 48 hrs by agar well diffusion method; settings: for zone of inhibition at 75 µg/disc: read-out: DIZ
[6] = tested on: Penicillium chrysogenum; experiment: Antifungal activity against Penicillium chrysogenum after 48 hrs by broth dilution test
[7] = tested on: Aspergillus niger; experiment: Antifungal activity against Aspergillus niger after 48 hrs by broth dilution test
[8] = tested on: Aspergillus niger; experiment: Antifungal activity against Aspergillus niger assessed as zone of inhibition at 75 ug/well after 48 hrs by agar well diffusion method; settings: for zone of inhibition at 75 µg/disc: read-out: DIZ
[9] = tested on: Pseudomonas aeruginosa; experiment: Bactericidal activity against Pseudomonas aeruginosa incubated for 24 hrs followed by replating on sterile nutrient broth and incubated for 24 hrs by broth dilution test
[10] = tested on: Staphylococcus aureus; experiment: Bactericidal activity against Staphylococcus aureus incubated for 24 hrs followed by replating on sterile nutrient broth and incubated for 24 hrs by broth dilution test
[11] = tested on: Klebsiella pneumoniae; experiment: Antimicrobial activity against Klebsiella pneumoniae assessed as zone of inhibition at 100 ug/well after 24 hrs by agar well diffusion method; settings: for zone of inhibition at 100 µg/disc: read-out: DIZ
[12] = tested on: Bacillus subtilis; experiment: Antimicrobial activity against Bacillus subtilis assessed as zone of inhibition at 75 ug/well after 24 hrs by agar well diffusion method; settings: for zone of inhibition at 75 µg/disc: read-out: DIZ
[13] = tested on: Aspergillus niger; experiment: Fungicidal activity against Aspergillus niger incubated for 48 hrs followed by replating on PDA and incubated for 48 hrs by broth dilution test
[14] = tested on: Klebsiella pneumoniae; experiment: Antimicrobial activity against Klebsiella pneumoniae assessed as zone of inhibition at 50 ug/well after 24 hrs by agar well diffusion method; settings: for zone of inhibition at 50 µg/disc: read-out: DIZ
[15] = tested on: Pseudomonas aeruginosa; experiment: Antimicrobial activity against Pseudomonas aeruginosa assessed as zone of inhibition at 50 ug/well after 24 hrs by agar well diffusion method; settings: for zone of inhibition at 50 µg/disc: read-out: DIZ
[16] = tested on: Staphylococcus aureus; experiment: Antimicrobial activity against Staphylococcus aureus assessed as zone of inhibition at 100 ug/well after 24 hrs by agar well diffusion method; settings: for zone of inhibition at 100 µg/disc: read-out: DIZ
[17] = tested on: Pseudomonas aeruginosa; experiment: Antimicrobial activity against Pseudomonas aeruginosa assessed as zone of inhibition at 100 ug/well after 24 hrs by agar well diffusion method; settings: for zone of inhibition at 100 µg/disc: read-out: DIZ
[18] = tested on: Klebsiella pneumoniae; experiment: Antimicrobial activity against Klebsiella pneumoniae after 24 hrs by broth dilution test
[19] = tested on: Klebsiella pneumoniae; experiment: Bactericidal activity against Klebsiella pneumoniae incubated for 24 hrs followed by replating on sterile nutrient broth and incubated for 24 hrs by broth dilution test
[20] = tested on: Pseudomonas aeruginosa; experiment: Antimicrobial activity against Pseudomonas aeruginosa after 24 hrs by broth dilution test
[21] = tested on: Penicillium chrysogenum; experiment: Fungicidal activity against Penicillium chrysogenum incubated for 48 hrs followed by replating on PDA and incubated for 48 hrs by broth dilution test
[22] = tested on: Staphylococcus aureus; experiment: Antimicrobial activity against Staphylococcus aureus after 24 hrs by broth dilution test
[23] = tested on: Staphylococcus aureus; experiment: Antimicrobial activity against Staphylococcus aureus assessed as zone of inhibition at 50 ug/well after 24 hrs by agar well diffusion method; settings: for zone of inhibition at 50 µg/disc: read-out: DIZ
[24] = tested on: Pseudomonas aeruginosa; experiment: Antimicrobial activity against Pseudomonas aeruginosa assessed as zone of inhibition at 75 ug/well after 24 hrs by agar well diffusion method; settings: for zone of inhibition at 75 µg/disc: read-out: DIZ
[25] = tested on: Klebsiella pneumoniae; experiment: Antimicrobial activity against Klebsiella pneumoniae assessed as zone of inhibition at 75 ug/well after 24 hrs by agar well diffusion method; settings: for zone of inhibition at 75 µg/disc: read-out: DIZ
[26] = tested on: Bacillus subtilis; experiment: Antimicrobial activity against Bacillus subtilis assessed as zone of inhibition at 50 ug/well after 24 hrs by agar well diffusion method; settings: for zone of inhibition at 50 µg/disc: read-out: DIZ
[27] = tested on: Bacillus subtilis; experiment: Antimicrobial activity against Bacillus subtilis after 24 hrs by broth dilution test
[28] = tested on: Staphylococcus aureus; experiment: Antimicrobial activity against Staphylococcus aureus assessed as zone of inhibition at 75 ug/well after 24 hrs by agar well diffusion method; settings: for zone of inhibition at 75 µg/disc: read-out: DIZ
[29] = tested on: Bacillus subtilis; experiment: Bactericidal activity against Bacillus subtilis incubated for 24 hrs followed by replating on sterile nutrient broth and incubated for 24 hrs by broth dilution test
[30] = tested on: Bacillus subtilis; experiment: Antimicrobial activity against Bacillus subtilis assessed as zone of inhibition at 100 ug/well after 24 hrs by agar well diffusion method; settings: for zone of inhibition at 100 µg/disc: read-out: DIZ

MIC [6] [µg/mL] | MIC [7] [µg/mL] | SMILES | zone of inhibition at 50 µg/disc [1] [mm] | zone of inhibition at 100 µg/disc [2] [mm] | zone of inhibition at 50 µg/disc [3] [mm] | zone of inhibition at 100 µg/disc [4] [mm] | zone of inhibition at 75 µg/disc [5] [mm] | zone of inhibition at 75 µg/disc [8] [mm] | zone of inhibition at 100 µg/disc [11] [mm] | zone of inhibition at 75 µg/disc [12] [mm] | zone of inhibition at 50 µg/disc [14] [mm] | zone of inhibition at 50 µg/disc [15] [mm] | zone of inhibition at 100 µg/disc [16] [mm] | zone of inhibition at 100 µg/disc [17] [mm] | zone of inhibition at 50 µg/disc [23] [mm] | zone of inhibition at 75 µg/disc [24] [mm] | zone of inhibition at 75 µg/disc [25] [mm] | zone of inhibition at 50 µg/disc [26] [mm] | zone of inhibition at 75 µg/disc [28] [mm] | zone of inhibition at 100 µg/disc [30] [mm] | also measured
100 (≈ 268 µM) | 25 (≈ 67.1 µM) | O=C(NS(=O)(=O)/C=C/c1ccc([N+](=O)[O-])cc1)c1ccc(Cl)s1 | 27 | 28 | 24 | 31 | 26 | 29 | 33 | 34 | 27 | 19 | 26 | 24 | 21 | 21 | 29 | 31 | 24 | 38 | MBC [9]: 100 µg/mL (≈ 268 µM); MBC [10]: 200 µg/mL (≈ 536 µM); MFC [13]: 100 µg/mL (≈ 268 µM); MIC [18]: 25 µg/mL (≈ 67.1 µM); MBC [19]: 100 µg/mL (≈ 268 µM); MIC [20]: 25 µg/mL (≈ 67.1 µM); MFC [21]: > 200 µg/mL; MIC [22]: 50 µg/mL (≈ 134 µM); MIC [27]: 6.25 µg/mL (≈ 16.8 µM); MBC [29]: 12.5 µg/mL (≈ 33.5 µM)
50 (≈ 88.5 µM) | 12.5 (≈ 22.1 µM) | O=C(NS(=O)(=O)c1c(-c2ccccc2)nn(-c2ccccc2)c1-c1ccc([N+](=O)[O-])cc1)c1ccc(Cl)s1 | 29 | 29 | 24 | 34 | 25 | 31 | 37 | 38 | 30 | 22 | 29 | 26 | 24 | 23 | 33 | 35 | 28 | 41 | MBC [9]: 50 µg/mL (≈ 88.5 µM); MBC [10]: 200 µg/mL (≈ 354 µM); MFC [13]: 50 µg/mL (≈ 88.5 µM); MIC [18]: 25 µg/mL (≈ 44.2 µM); MBC [19]: 100 µg/mL (≈ 177 µM); MIC [20]: 12.5 µg/mL (≈ 22.1 µM); MFC [21]: 200 µg/mL (≈ 354 µM); MIC [22]: 50 µg/mL (≈ 88.5 µM); MIC [27]: 6.25 µg/mL (≈ 11.1 µM); MBC [29]: 12.5 µg/mL (≈ 22.1 µM)
100 (≈ 188 µM) | 25 (≈ 47.1 µM) | O=C(NS(=O)(=O)c1c(-c2ccccc2)nn(-c2ccccc2)c1-c1ccc([N+](=O)[O-])cc1)c1cccs1 | 25 | 27 | 22 | 31 | 24 | 28 | 34 | 36 | 29 | 20 | 27 | 24 | 23 | 21 | 32 | 33 | 26 | 40 | MBC [9]: 100 µg/mL (≈ 188 µM); MBC [10]: 200 µg/mL (≈ 377 µM); MFC [13]: 100 µg/mL (≈ 188 µM); MIC [18]: 25 µg/mL (≈ 47.1 µM); MBC [19]: 100 µg/mL (≈ 188 µM); MIC [20]: 25 µg/mL (≈ 47.1 µM); MFC [21]: > 200 µg/mL; MIC [22]: 50 µg/mL (≈ 94.2 µM); MIC [27]: 6.25 µg/mL (≈ 11.8 µM); MBC [29]: 12.5 µg/mL (≈ 23.6 µM)
 |  | O=C(N[C@H](CO)[C@H](O)c1ccc([N+](=O)[O-])cc1)C(Cl)Cl [CHLORAMPHENICOL] |  |  |  |  |  |  | 42 | 34 | 38 | 25 | 35 | 30 | 30 | 27 | 40 | 32 | 33 | 38 | MIC [18]: 6.25 µg/mL (≈ 19.3 µM); MIC [20]: 6.25 µg/mL (≈ 19.3 µM); MIC [22]: 12.5 µg/mL (≈ 38.7 µM); MIC [27]: 6.25 µg/mL (≈ 19.3 µM)
 |  | O=C(NS(=O)(=O)C1C(c2ccccc2)=NOC1c1ccc([N+](=O)[O-])cc1)c1ccc(Cl)s1 (stereo unspecified) | 9 | 12 |  | 15 | 9 | 12 | 13 | 19 | 9 |  | 16 |  | 13 |  | 11 | 16 | 14 | 21 | diameter of the inhibition zone (DIZ) [15]: inactive; diameter of the inhibition zone (DIZ) [17]: inactive; diameter of the inhibition zone (DIZ) [3]: inactive; diameter of the inhibition zone (DIZ) [24]: inactive
 |  | O=C(NS(=O)(=O)c1c(-c2ccccc2)noc1-c1ccccc1)c1cccs1 | 18 | 19 | 14 | 23 | 16 | 20 | 26 | 26 | 21 | 11 | 23 | 15 | 17 | 13 | 24 | 24 | 21 | 29 | 
 |  | O=C(NS(=O)(=O)c1c(-c2ccccc2)noc1-c1ccccc1)c1ccc(Cl)s1 | 21 | 22 | 17 | 28 | 19 | 24 | 32 | 32 | 26 | 17 | 28 | 21 | 23 | 19 | 29 | 30 | 26 | 35 | 
 |  | Cc1ccc(C2C(S(=O)(=O)NC(=O)c3ccc(Cl)s3)C(c3ccccc3)=NN2c2ccccc2)cc1 (stereo unspecified) |  |  |  |  |  |  |  |  |  |  |  |  |  |  |  |  |  |  | diameter of the inhibition zone (DIZ) [1]: inactive; diameter of the inhibition zone (DIZ) [11]: inactive; diameter of the inhibition zone (DIZ) [12]: inactive; diameter of the inhibition zone (DIZ) [14]: inactive; diameter of the inhibition zone (DIZ) [2]: inactive; diameter of the inhibition zone (DIZ) [15]: inactive; diameter of the inhibition zone (DIZ) [16]: inactive; diameter of the inhibition zone (DIZ) [17]: inactive; diameter of the inhibition zone (DIZ) [3]: inactive; diameter of the inhibition zone (DIZ) [4]: inactive; diameter of the inhibition zone (DIZ) [23]: inactive; diameter of the inhibition zone (DIZ) [5]: inactive; diameter of the inhibition zone (DIZ) [24]: inactive; diameter of the inhibition zone (DIZ) [25]: inactive; diameter of the inhibition zone (DIZ) [26]: inactive; diameter of the inhibition zone (DIZ) [28]: inactive; diameter of the inhibition zone (DIZ) [8]: inactive; diameter of the inhibition zone (DIZ) [30]: inactive

SMILES | MIC [6] [µg/mL] | MIC [7] [µg/mL] | zone of inhibition at 50 µg/disc [1] [mm] | zone of inhibition at 100 µg/disc [2] [mm] | zone of inhibition at 50 µg/disc [3] [mm] | zone of inhibition at 100 µg/disc [4] [mm] | zone of inhibition at 75 µg/disc [5] [mm] | zone of inhibition at 75 µg/disc [8] [mm] | zone of inhibition at 100 µg/disc [11] [mm] | zone of inhibition at 75 µg/disc [12] [mm] | zone of inhibition at 50 µg/disc [14] [mm] | zone of inhibition at 50 µg/disc [15] [mm] | zone of inhibition at 100 µg/disc [16] [mm] | zone of inhibition at 100 µg/disc [17] [mm] | zone of inhibition at 50 µg/disc [23] [mm] | zone of inhibition at 75 µg/disc [24] [mm] | zone of inhibition at 75 µg/disc [25] [mm] | zone of inhibition at 50 µg/disc [26] [mm] | zone of inhibition at 75 µg/disc [28] [mm] | zone of inhibition at 100 µg/disc [30] [mm] | also measured
CC(=O)N1CCN(c2ccc(OCC3COC(Cn4ccnc4)(c4ccc(Cl)cc4Cl)O3)cc2)CC1 (stereo unspecified) [KETOCONAZOLE] | 12.5 (≈ 23.5 µM) | 6.25 (≈ 11.8 µM) | 31 | 38 | 35 | 36 | 36 | 33 |  |  |  |  |  |  |  |  |  |  |  |  | 
